Measurements as given in patent US8304236B2, “Modified biotin-binding protein” (Japan Tobacco Inc., priority 2008, dated 2012).
Where two headings read alike, the source gives them in different places.

Columns and labels:
[1] = target: T1, tamavidin 2 (TM2), wild type, SEQ ID NO: 2, Pleurotus cornucopiae (Pleurotus cornucopiae, UniProt B9A0T7); test: Biacore 3000 iminobiotin binding test (Example 2); settings: Iminobiotin-BSA analyte, protein immobilized, pH 11, 25° C.
T1 sequence (B9A0T7 1-141): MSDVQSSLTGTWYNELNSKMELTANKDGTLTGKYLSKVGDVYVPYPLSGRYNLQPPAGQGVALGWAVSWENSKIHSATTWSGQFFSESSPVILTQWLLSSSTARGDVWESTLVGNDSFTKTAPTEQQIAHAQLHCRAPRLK
Procedure: These samples were diluted with 10 mM acetate buffer (pH 5, Biacore) into about 50 μg/mL.
Immobilization was performed at 25° C. and a flow rate of 10 μL/min using HBS-EP (Biacore) as a running buffer. The TM2 and the TM2 mutant (about 4000 to 8000 RU) were immobilized on CM5 sensor chips (Biacore) by amine coupling. The activating time was set to 10 minutes.
The specific interaction was measured using iminobiotin BSA as an analyte (a material flowing in a flow channel) at 25° C. and a flow rate of 20 μL/min and using a CAPS buffer (50 mM CAPS, 150 mM NaCl, 0.005% Tween 20, pH 11) as the running buffer. Iminobiotin BSA was produced as follows: A highly purified BSA (Sigma, 2 mg) and NHS-iminobiotin (Pierce, 1 mg) were dissolved in 50 mM sodium borate (pH 8.0, 1 mL), followed by incubation at 4° C. for 2 hours. […] Subsequently, the iminobiotin-BSA produced by the process described above was similarly measured with the same flow cell.
Each constant of samples showing interaction was calculated using analysis software BIAevaluation ver. […] The dissociation constant (KD) was determined from kd/ka. […] Accordingly, in the analysis, the Rmax was calculated by conducting local fitting for each concentration, and only the results at concentrations (mainly 18.75 to 75 nM) approximated to the 1:1 (Langmuir) binding model were employed.

[2] = target: T1, tamavidin 2 (TM2), wild type, SEQ ID NO: 2, Pleurotus cornucopiae; settings: WO2008/081938 A1; cited from earlier work
[3] = target: tamavidin 2 (TM2) variant TM2 K33TK37AR104E, SEQ ID NO: 14 (Pleurotus cornucopiae, UniProt B9A0T7, K33T/K37A/R104E); test: Biacore 3000 biotin-binding test of low-pI TM2 (Example 1); settings: BSA-LCLC-Biotin (30.5 Å) immobilized; 25° C.
Procedure: (§1) HBS-EP (Biacore) was used as a running buffer, and each low-pI TM2 (40 μL) was injected at 25° C. and a flow rate of 20 μL/min for 2 minutes.
(§2) From the resulting sensorgrams, the binding rate constant (ka), the dissociation rate constant (kd), and the dissociation constant (KD) were calculated using an analysis software, BIAevaluation version 4.1.

[4] = target: T1, tamavidin 2 (TM2), wild type, SEQ ID NO: 2, Pleurotus cornucopiae; test: as above; settings: 25° C.
Procedure: as §1, §2

[5] = target: tamavidin 2 (TM2) variant TM2 K141E, SEQ ID NO: 10 (Pleurotus cornucopiae, UniProt B9A0T7, K141E); test: as above; settings: BSA-LCLC-Biotin (30.5 Å) immobilized; 25° C.
Procedure: (4) a TM2 mutant in which lysine at position 141 was replaced with glutamic acid (hereinafter referred to as “TM2 K141E; its nucleotide sequence is listed in SEQ ID NO: 9, and the amino acid sequence in SEQ ID NO: 10);
as §1, §2

streptavidin = settings: similarly measured; WO2008/081938 A1; cited from earlier work
[6] = target: tamavidin 2 (TM2) variant TM2 R104E, SEQ ID NO: 8 (Pleurotus cornucopiae, UniProt B9A0T7, R104E); test: Biacore 3000 biotin-binding test of low-pI TM2 (Example 1); settings: BSA-LCLC-Biotin (30.5 Å) immobilized; 25° C.
Procedure: (3) a TM2 mutant in which arginine at position 104 was replaced with glutamic acid (hereinafter referred to as “TM2 R104E; its nucleotide sequence is listed in SEQ ID NO: 7, and the amino acid sequence in SEQ ID NO: 8);
as §1, §2

[7] = target: tamavidin 2 (TM2) variant TM2 K73Q, SEQ ID NO: 6 (Pleurotus cornucopiae, UniProt B9A0T7, K73Q); test: as above; settings: SA-LC-Biotin (22.4 Å) immobilized; 25° C.
Procedure: (2) a TM2 mutant in which lysine at position 73 was replaced with glutamine (hereinafter referred to as “TM2 K73Q”; its nucleotide sequence is listed in SEQ ID NO: 5, and the amino acid sequence in SEQ ID NO: 6);
as §1, §2

[8] = target: T1, tamavidin 2 (TM2), wild type, SEQ ID NO: 2, Pleurotus cornucopiae; test: Biacore 3000 biotin binding test (Example 3); settings: Biotin-BSA (22.4 Å) immobilized
Procedure: TM2 and HALU TM2 used as analytes were prepared by purification with 2-iminobiotin agarose in accordance with a common method and dialysis with 20MM KPi (pH 7) overnight. The analytes were each adjusted to about 50 μg/mL in 10 mM acetate buffer (pH 5, Biacore).
The immobilization of the ligand and measurement and analysis of specific interaction with the analytes were conducted as in paragraph 2-7-2).

[9] = target: tamavidin 2 (TM2) variant TM2 K33TK37A, SEQ ID NO: 12 (Pleurotus cornucopiae, UniProt B9A0T7, K33T/K37A); test: Biacore 3000 biotin-binding test of low-pI TM2 (Example 1); settings: BSA-LCLC-Biotin (30.5 Å) immobilized; 25° C.
Procedure: (5) a TM2 mutant in which lysine at position 33 was replaced with threonine, and lysine at position 37 was replaced with alanine (hereinafter referred to as “TM2 K33TK37A”; its nucleotide sequence is listed in SEQ ID NO: 11, and the amino acid sequence in SEQ ID NO: 12);
as §1, §2

[10] = target: tamavidin 2 (TM2) variant TM2 R104EK141E, SEQ ID NO: 16 (Pleurotus cornucopiae, UniProt B9A0T7, K141E/R104E); test: as above; settings: SA-LC-Biotin (22.4 Å) immobilized; 25° C.
Procedure: (7) a TM2 mutant in which arginine at position 104 was replaced with glutamic acid, and lysine at position 141 was replaced with glutamic acid (hereinafter referred to as “TM2 R104EK141E”; its nucleotide sequence is listed in SEQ ID NO: 15, and the amino acid sequence in SEQ ID NO: 16).
as §1, §2

[11] = test system: tamavidin 2 (TM2) variant TM2 D40N, SEQ ID NO: 20; test: Biacore 3000 biotin-binding test (Example 2); parameters: species or system Pleurotus cornucopiae; settings: Biotin-LC-BSA
Procedure: As described above, a TM2 mutant in which aspartic acid at position 40 was replaced with asparagine (hereinafter referred to as “TM2 D40N”; its nucleotide sequence SEQ ID NO: 19, and the amino acid sequence in SEQ ID NO: 20) was constructed.
The solution was put into a dialysis tube (MWCO 6-8,000) and was dialyzed with 50 mM sodium carbonate (pH 6.7) at 4° C. overnight.
The amount for immobilization was adjusted to about 200 RU.
Accordingly, seven step measurement (3.125, 6.25, […], 25, 50, 100, and 200 nM) was conducted from the lowest concentration, without recycling steps. […] The measurement was performed at 25° C. The resulting sensorgrams were subjected to reaction kinetics analysis using analysis software BIAevaluation ver. 4.1 with a 1:1 binding model to calculate the binding rate constant (ka) and the dissociation rate constant (kd). The dissociation constant (KD) was determined from kd/ka. In the case where no recycling step is employed, the Rmax (maximum amount of binding analyte) decreases at each measurement. Accordingly, in the analysis, the Rmax was calculated by conducting local fitting for each concentration, and only the data of analyte concentrations that were approximated to the 1:1 binding model was employed.

[12] = target: tamavidin 2 (TM2) variant TM2 K26A, SEQ ID NO: 4 (Pleurotus cornucopiae, UniProt B9A0T7, K26A); test: Biacore 3000 biotin-binding test of low-pI TM2 (Example 1); settings: SA-LC-Biotin (22.4 Å) immobilized; 25° C.
Procedure: (1) a TM2 mutant in which lysine at position 26 was replaced with alanine (hereinafter referred to as “TM2 K26A”; its nucleotide sequence is listed in SEQ ID NO: 3 and the amino acid sequence in SEQ ID NO: 4);
as §1, §2

Chain of tamavidin 2 (TM2) variant TM2 K33TK37A, SEQ ID NO: 12 (B9A0T7 entry or part of it K33T/K37A): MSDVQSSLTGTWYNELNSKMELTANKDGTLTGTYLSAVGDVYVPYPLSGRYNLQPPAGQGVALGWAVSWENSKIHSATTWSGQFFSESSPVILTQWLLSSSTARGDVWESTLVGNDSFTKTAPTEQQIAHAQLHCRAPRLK
Chain of tamavidin 2 (TM2) variant TM2 K26A, SEQ ID NO: 4 (B9A0T7 entry or part of it K26A): as the sequence (B9A0T7 entry or part of it K33T/K37A) above, with K26A, T33K, A37K counted along it
Chain of tamavidin 2 (TM2) variant TM2 K33TK37AR104E, SEQ ID NO: 14 (B9A0T7 entry or part of it K33T/K37A/R104E): as the sequence (B9A0T7 entry or part of it K33T/K37A) above, with R104E counted along it
Chain of tamavidin 2 (TM2) variant TM2 K73Q, SEQ ID NO: 6 (B9A0T7 entry or part of it K73Q): as the sequence (B9A0T7 entry or part of it K33T/K37A) above, with T33K, A37K, K73Q counted along it
Chain of tamavidin 2 (TM2) variant TM2 R104EK141E, SEQ ID NO: 16 (B9A0T7 entry or part of it R104E/K141E): as the sequence (B9A0T7 entry or part of it K33T/K37A) above, with T33K, A37K, R104E, K141E counted along it
Chain of tamavidin 2 (TM2) variant TM2 R104E, SEQ ID NO: 8 (B9A0T7 entry or part of it R104E): as the sequence (B9A0T7 entry or part of it K33T/K37A) above, with T33K, A37K, R104E counted along it
Chain of tamavidin 2 (TM2) variant TM2 K141E, SEQ ID NO: 10 (B9A0T7 entry or part of it K141E): as the sequence (B9A0T7 entry or part of it K33T/K37A) above, with T33K, A37K, K141E counted along it

Structure (SMILES) | kon ([1]; read-out: binding rate constant (ka)) | koff ([1]; read-out: dissociation rate constant (kd)) | binding rate constant (ka) [2] | dissociation rate constant (kd) [2] | binding rate constant (ka) [3] | binding rate constant (ka) ([4]; BSA-LCLC-Biotin (30.5 Å) immobilized) | binding rate constant (ka) ([4]; SA-LC-Biotin (22.4 Å) immobilized) | binding rate constant (ka) [5] | binding rate constant (ka) (streptavidin) | dissociation rate constant (kd) (streptavidin) | binding rate constant (ka) [6] | binding rate constant (ka) [7] | binding rate constant (ka) [8] | binding rate constant (ka) [9] | binding rate constant (ka) [10] | change of binding rate constant (ka) compared to TM2 [11] | change of dissociation rate constant (kd) compared to TM2 [11] | binding rate constant (ka) [12]
N=C1N[C@H]2[C@H](CS[C@H]2CCCCC(=O)O)N1 [iminobiotin] | 130000 ± 5e+09 M⁻¹ s⁻¹ | 0.0013 ± 6e-07 s⁻¹ | – | – | – | – | – | – | – | – | – | – | – | – | – | – | – | –
O=C(O)CCCC[C@@H]1SC[C@@H]2NC(=O)N[C@@H]21 [biotin, D-[(+)-cis-hexahydro-2-oxo-1H-thieno-(3,4)-imidazole-4-valerate]] | – | – | 919000 M⁻¹ s⁻¹ | 6.83e-06 s⁻¹ | 6.3 × 10^5 | 9.2 × 10^5 | 9.9 × 10^5 | 5.8 × 10^5 | 2.28e+06 M⁻¹ s⁻¹ | 2.52e-06 s⁻¹ | 5.8 × 10^5 | 5.9 × 10^5 | 9.9 × 10^5 | 2.5 × 10^5 | 1.2 × 10^6 | increased | decreased | 5.0 × 10^5
